Reference: PubChem BioAssay (NCI)
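Step 1: Grow cells in 96-well plates. Step 2: Expose to compound for 48 hours at 5 concentrations. Step 3: Interpolate endpoints linearly; if unreached, use highest concentration. GI50: concentration for 50% inhibition of growth. TGI marks complete inhibition of growth.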

Key:
Test in all cases: NCI anticancer screen, dose series, 48 h
CAKI-1 renal = test system: CAKI-1 renal
COLO 205 colon = test system: COLO 205 colon
HOP-92 NSCLC = test system: HOP-92 NSCLC
OVCAR-3 ovarian = test system: OVCAR-3 ovarian
SK-MEL-28 melanoma = test system: SK-MEL-28 melanoma
DMS 273 small cell lung = test system: DMS 273 small cell lung
NCI-H522 lung = test system: NCI-H522 lung
SF-539 CNS = test system: SF-539 CNS
SK-MEL-5 melanoma = test system: SK-MEL-5 melanoma
SNB-75 CNS = test system: SNB-75 CNS
DU-145 prostate = test system: DU-145 prostate
MDA-MB-231 breast = test system: MDA-MB-231 breast
NCI/ADR-RES ovarian = test system: NCI/ADR-RES ovarian
PC-3 prostate = test system: PC-3 prostate

Compound	TGI (CAKI-1 renal) [nM]	TGI (COLO 205 colon) [nM]	TGI (HOP-92 NSCLC) [nM]	TGI (OVCAR-3 ovarian) [nM]	TGI (SK-MEL-28 melanoma) [nM]	TGI (DMS 273 small cell lung) [nM]	TGI (NCI-H522 lung) [nM]	TGI (SF-539 CNS) [nM]	TGI (SK-MEL-5 melanoma) [nM]	TGI (SNB-75 CNS) [nM]	TGI (DU-145 prostate) [nM]	GI50 (MDA-MB-231 breast) [nM]	TGI (MDA-MB-231 breast) [nM]	GI50 (NCI-H522 lung) [nM]	GI50 (NCI/ADR-RES ovarian) [nM]	TGI (NCI/ADR-RES ovarian) [nM]	GI50 (PC-3 prostate) [nM]	TGI (PC-3 prostate) [nM]	GI50 (SK-MEL-28 melanoma) [nM]
Cc1ccc(NC(=O)CC/C(CC(=O)C(C)(C)C)=N/NC(=O)c2cc3ccccc3cc2O)cc1C	> 100000	> 100000	> 100000	> 100000	> 100000														
CCC12CCC[C@@]13C=C[C@H](O3)C(C)(C)C2=O (some centres not stated)	> 100000			> 100000		> 100000	> 100000	> 100000	> 100000	> 100000									
O=C1c2ccccc2-c2c1c1ccccc1c(=O)n2CCCNCCNCCCn1c2c(c3ccccc3c1=O)C(=O)c1ccccc1-2					> 100000						1070	< 38.1	437	151	358	1750	92.9	1840	1090
